Assays:
[1] = tested on: IMCSzyme™ (recombinant glucuronidase); assay type: biochemical
[2] = tested on: IMCSzyme™ (recombinant glucuronidase); assay: IMCSzyme hydrolysis of opiate glucuronides; assay type: biochemical; conditions: for Cleavage in the presence of the IMCSzyme (in words): compared with planar THCA-glucuronide
[3] = tested on: IMCSzyme™ (recombinant glucuronidase); assay: IMCSzyme hydrolysis of THCA glucuronide with and without water miscible organic media; assay type: biochemical
Protocol: To a 10 mL volumetric flask add 5 mL of 0.2M Sodium Phosphate buffer pH 7.5. Then add 1.0 mL of IMCS enzyme. QS to the line with 0.2M phosphate buffer, cap and invert several times to mix well. Final enzyme concentration is 5000 U.
To a 10 mL volumetric flask add 6 mL of 50/50 ACN/MeOH. Add […] of THCA D9 100 μg/mL. Then add 1.0 mL of IMCS enzyme stock (>5000 U). QS to the line with 0.2M sodium phosphate buffer. Final enzyme concentration is 5000 U.
In a 10 mL volumetric flask add 6 mL of 50/50 ACN/MeOH. Add 25 μL of THCA D9 (100 μg/mL). QS to the line with DI water, cap and invert several times to mix well. Concentration of IS will be 250 ng/mL.
(§1) To a 10 mL volumetric flask add 1 mL ACN. Add 18.5 μL of 10 μg/mL THCA Glucuronide working solution adjusted to allow quantitation of THCA at 18.5 ng/mL post hydrolysis. QS to line with NHU.
Pipet 50 μL sample into a 750 μL autosampler vial. Pipet 50 μL of prepared enzyme into vial (this will yield 500 U in final 500 μL volume) and wait 5, 10, 15, and 20 minutes. Then pipet 400 μL of THCA D9 IS into the vial. Vortex and move to instrument.
Pipet 50 μL sample into a 750 μL, autosampler vial. Then pipet 450 μL, of Enzyme Stock Solution With Organic (see above) into vial. Wait 5, 10, 15, and 20 minutes. Vortex and move to instrument.

[4] = tested on: Red Abalone beta-glucuronidase (Kura Biotec); assay: Red Abalone beta-glucuronidase hydrolysis of THCA glucuronide; assay type: biochemical; conditions: for Enzyme + Organic Solvent(s) (% Hydrolysis) / Enzyme (% Hydrolysis): 65° C.; for Enzyme + Organic Solvent(s) (% Hydrolysis): ACN/MeOH; for Enzyme (% Hydrolysis): without organic
Protocol: To a 10 mL volumetric flask add 5 mL of DI water. Then add 1.0 mL of Kura Biotec enzyme. QS to the line with DI water, cap and invert several times to mix well. Final enzyme concentration is 5000 U.
In a 10 mL volumetric flask add 6 mL of 50/50 ACN/MeOH. Add 25 μL of THCA D9 100 μg/mL. Then add 1.0 mL of IMCS enzyme. QS to the line with DI water. Final enzyme concentration is 5000 U.
To a 10 mL volumetric flask add 6 mL of 50/50 ACN/MeOH. Add 25 μL of THCA D9 (100 μg/mL). QS to the line with DI water, cap and invert several times to mix well. Concentration of IS will be 250 ng/mL.
as §1
(§2) Pipet 50 μL sample into a 750 μL autosampler vial. Pipet 50 μL of prepared enzyme into vial (this will yield 500 U in final 500 μL volume). Vortex and heat 15, 30, 45, and 60 minutes. Then pipet 400 μL of THCA D9 IS into vial. Vortex and move to instrument.
Pipet 50 μL sample into a 750 μL autosampler vial. Then pipet 450 μL of Enzyme Stock Solution With Organic (see above) into vial. Vortex and heat 15, 30, 45, and 60 minutes. Vortex and move to instrument.

[5] = Hydrolysis of THCA glucuronide at 65° C. with no enzyme; assay type: physicochemical; conditions: for No Enzyme (% Hydrolysis): 65° C.
Protocol: as §1, §2
In the presence of enzyme, the THCA glucuronide is hydrolyzed completely by 15 min.

CO[C@]12CC[C@@]3(C[C@@H]1[C@](C)(O)C(C)(C)C)[C@H]1Cc4ccc(O[C@@H]5O[C@H](C(=O)O)[C@@H](O)[C@H](O)[C@H]5O)c5c4[C@@]3(CCN1CC1CC1)[C@H]2O5 [Buprenorphine Glucuronide]
Cleavage by the recombinant enzyme (in words) [1]: rapidly cleaves

COc1ccc2c3c1O[C@H]1[C@@H](O[C@@H]4O[C@H](C(=O)O)[C@@H](O)[C@H](O)[C@H]4O)C=C[C@H]4[C@@H](C2)N(C)CC[C@@]341 [Codeine Glucuronide]
Mean % Hydrolysis ([2]; 55° C., 0 min): 15.7%
Mean % Hydrolysis ([2]; 55° C., 15 min): 40.2%
Mean % Hydrolysis ([2]; 55° C., 30 min): 65.6%
Mean % Hydrolysis ([2]; 55° C., 45 min): 76.6%
Mean % Hydrolysis ([2]; 55° C., 60 min): 81.8%
Mean % Hydrolysis ([2]; 65° C., 0 min): 15.7%
Mean % Hydrolysis ([2]; 65° C., 15 min): 42.7%
Mean % Hydrolysis ([2]; 65° C., 30 min): 64.1%
Mean % Hydrolysis ([2]; 65° C., 45 min): 75.5%
Mean % Hydrolysis ([2]; 65° C., 60 min): 79.8%
Cleavage in the presence of the IMCSzyme (in words) [2]: take more time and heat to cleave

CN1CC[C@]23c4c5ccc(O[C@@H]6O[C@H](C(=O)O)[C@@H](O)[C@H](O)[C@H]6O)c4O[C@H]2C(=O)CC[C@H]3[C@H]1C5 [Hydromorphone Glucuronide]
Mean % Hydrolysis ([2]; 55° C., 0 min): 58.5%
Mean % Hydrolysis ([2]; 55° C., 15 min): 80.5%
Mean % Hydrolysis ([2]; 55° C., 30 min): 91.1%
Mean % Hydrolysis ([2]; 55° C., 45 min): 93.3%
Mean % Hydrolysis ([2]; 55° C., 60 min): 93.8%
Mean % Hydrolysis ([2]; 65° C., 0 min): 58.5%
Mean % Hydrolysis ([2]; 65° C., 15 min): 77.1%
Mean % Hydrolysis ([2]; 65° C., 30 min): 89.4%
Mean % Hydrolysis ([2]; 65° C., 45 min): 91.0%
Mean % Hydrolysis ([2]; 65° C., 60 min): 91.5%

CN1CC[C@]23c4c5ccc(O)c4O[C@H]2[C@@H](O[C@@H]2O[C@H](C(=O)O)[C@@H](O)[C@H](O)[C@H]2O)C=C[C@H]3[C@H]1C5 [Morphine-6-Glucuronide]
Mean % Hydrolysis ([2]; 55° C., 0 min): 40.4%
Mean % Hydrolysis ([2]; 55° C., 15 min): 67.9%
Mean % Hydrolysis ([2]; 55° C., 30 min): 83.6%
Mean % Hydrolysis ([2]; 55° C., 45 min): 95.9%
Mean % Hydrolysis ([2]; 55° C., 60 min): 91.7%
Mean % Hydrolysis ([2]; 65° C., 0 min): 40.4%
Mean % Hydrolysis ([2]; 65° C., 15 min): 71.2%
Mean % Hydrolysis ([2]; 65° C., 30 min): 88.3%
Mean % Hydrolysis ([2]; 65° C., 45 min): 98.5%
Mean % Hydrolysis ([2]; 65° C., 60 min): 97.9%
Cleavage in the presence of the IMCSzyme (in words) [2]: take more time and heat to cleave

CN1CC[C@]23c4c5ccc(O[C@@H]6O[C@H](C(=O)O)[C@@H](O)[C@H](O)[C@H]6O)c4O[C@H]2[C@@H](O)C=C[C@H]3[C@H]1C5 [Morphine-3-Glucuronide]
Mean % Hydrolysis ([2]; 55° C., 0 min): 99.5%
Mean % Hydrolysis ([2]; 55° C., 15 min): 99.1%
Mean % Hydrolysis ([2]; 55° C., 30 min): 99.1%
Mean % Hydrolysis ([2]; 55° C., 45 min): 97.4%
Mean % Hydrolysis ([2]; 55° C., 60 min): 99.9%
Mean % Hydrolysis ([2]; 65° C., 0 min): 99.5%
Mean % Hydrolysis ([2]; 65° C., 15 min): 95.9%
Mean % Hydrolysis ([2]; 65° C., 30 min): 95.8%
Mean % Hydrolysis ([2]; 65° C., 45 min): 97.9%
Mean % Hydrolysis ([2]; 65° C., 60 min): 97.6%

CN1CC[C@]23c4c5ccc(O[C@@H]6O[C@H](C(=O)O)[C@@H](O)[C@H](O)[C@H]6O)c4O[C@H]2C(=O)CC[C@@]3(O)[C@H]1C5 [Oxymorphone Glucuronide]
Mean % Hydrolysis ([2]; 55° C., 0 min): 43.6%
Mean % Hydrolysis ([2]; 55° C., 15 min): 71.7%
Mean % Hydrolysis ([2]; 55° C., 30 min): 90.5%
Mean % Hydrolysis ([2]; 55° C., 45 min): 97.0%
Mean % Hydrolysis ([2]; 55° C., 60 min): 101.2%
Mean % Hydrolysis ([2]; 65° C., 0 min): 43.6%
Mean % Hydrolysis ([2]; 65° C., 15 min): 76.2%
Mean % Hydrolysis ([2]; 65° C., 30 min): 89.7%
Mean % Hydrolysis ([2]; 65° C., 45 min): 95.6%
Mean % Hydrolysis ([2]; 65° C., 60 min): 100.0%

CCCCCc1cc(O)c2c(c1)OC(C)(C)C1CCC(C(=O)OC3OC(C(=O)O)C(O)C(O)C3O)=CC21 (centres unmarked) [THCA Glucuronide]
Mean % Hydrolysis ([3]; Enzyme added and incubated, then organic media added, 5 min at 55° C.): 89.2%
Mean % Hydrolysis ([3]; Enzyme added and incubated, then organic media added, 5 min at 65° C.): 90.1%
Mean % Hydrolysis ([3]; Enzyme and organic media added at same time, 5 min at Room Temp): 110.2%
Mean % Hydrolysis ([3]; Enzyme and organic media added at same time, 10 min at Room Temp): 101.7%
Mean % Hydrolysis ([3]; Enzyme and organic media added at same time, 15 min at Room Temp): 104.9%
Recombinant enzyme hydrolysis (in words) ([3]; room temperature, time to fill the 96-well plate (~15 min using robotics)): complete
Enzyme + Organic Solvent(s) (% Hydrolysis) ([4]; 15 min): 121%
Enzyme (% Hydrolysis) ([4]; 15 min): 104%
Enzyme + Organic Solvent(s) (% Hydrolysis) ([4]; 30 min): 130%
Enzyme (% Hydrolysis) ([4]; 30 min): 97%
Enzyme + Organic Solvent(s) (% Hydrolysis) ([4]; 45 min): 134%
Enzyme (% Hydrolysis) ([4]; 45 min): 102%
Enzyme + Organic Solvent(s) (% Hydrolysis) ([4]; 60 min): 136%
Enzyme (% Hydrolysis) ([4]; 60 min): 101%
Hydrolysis ([4]; enzyme and 60% water miscible solvent, as early as 15 min): 100%
Time by which hydrolyzed completely ([4]; in the presence of enzyme): ≤ 15 min
No Enzyme (% Hydrolysis) ([5]; 15 min): 0.03%
No Enzyme (% Hydrolysis) ([5]; 30 min): 0.03%
No Enzyme (% Hydrolysis) ([5]; 45 min): 0.03%
No Enzyme (% Hydrolysis) ([5]; 60 min): 0.03%
Hydrolysis in the absence of enzyme (in words) ([5]; elevated temperature): no hydrolysis
